From patent US8497298B2, “Use of benzo-fused heterocycle sulfamide derivatives for lowering lipids and lowering blood glucose levels” (Janssen Pharmaceutica NV, priority 2005, dated 2013)

System: db/db mice
Assay: Female db/db Mouse Assay, Study A: single dose part and dose response part (Example 14)
Type: in vivo
From the text: 0.5% Hydroxypropyl Methylcellulose (Methocel) used as vehicle/control.
Db/db mice are susceptible to Type 2 diabetes. […] All of the mice were quarantined for a period of one week before transfer to the animal procedure room. A drop of blood (about 2 microliters) was collected by tail puncture and glucose concentration was detected with a glucometer (OneTouch UltraSmart, Lifescan, Milpitas, Calif.). […] Animals were separated and single housed at least three days prior to the drug treatments to allow acclimation to the new surroundings.
In the second, dose response part of Study A, 48 mice were allocated into 4 treatment groups of 12 mice each.
The dosing volume was 5 mL/kg body weight (0.2 mL for 40 gram mice). The mice were fed ad lib throughout the study. A necropsy was completed 18 hours after last dosing.
Blood glucose levels were measured from blood collected through tail puncture using a glucometer at 1000 hour. The mice were anaesthetized with sodium pentobarbital (1 ml/kg, intraperitoneal [i.p.] injection, SleepAway, Fort Dodge, Iowa) and blood was drawn via cardiac puncture using 1 mL syringe and collected into heparinized tubes. White adipose tissues (WAT) (retroperitoneal and inguinal fat pads), brown adipose tissure (BAT) and skeletal muscles (gastrocnemius and soleus muscle) and stomach contents were dissected and weighed. Plasma samples were obtained by centrifuging whole blood at 2000˜3000 g for 10˜20 minutes at 4° C. and stored at −20° C. for further measurement of insulin, HDL, LDL, total cholesterol and triglyceride.
Plasma insulin concentrations were measured by in both studies using the appropriate rat/mouse insulin enzyme-linked immunosorbent assay (ELISA) kit (EZRMI-13K, LINCO Research, St. Charles, Mo.). Blood samples were diluted 1:4 in charcoal stripped mouse serum that was included in the ELISA kit. The rest of the procedure followed the manufacturers instruction. The total fluorescence was detected using an Orion 1 Microplate Luminometer (Berthold Detection Systems, Pforzheim, Germany).
According to manufacturers protocol, cholesterol measurement was an enzymatic method utilizing cholesterol esterase and cholesterol oxidase conversion followed by a Trinder endpoint; Elimination/catalase method was used for HDL measurement; an enzymatic method with a Trinder endpoint was used for triglyceride measurement.
Data from both parts of the Study (single dose and dose response) was analyzed using the standard two-tailed Student's t-test and are expressed below as means and standard errors.

[1] = dose response part, 10 mg/kg, plasma
[2] = dose response part, 30 mg/kg, plasma
[3] = dose response part, 100 mg/kg, plasma
[4] = single dose part, Compound #8 300 mg/kg
[5] = single dose part, Compound #8 300 mg/kg oral once daily 10 days
[6] = single dose part, Compound #8 300 mg/kg, plasma

## NS(=O)(=O)NC[C@H]1COc2cc(Cl)ccc2O1 [Compound #8, (2S)-(−)-N-(6-Chloro-2,3-dihydro-benzo[1,4]dioxin-2-ylmethyl)-sulfamide]
Compound #8, dose not given
  total cholesterol concentrations elevated relative to vehicle: 18.7%
Dose response part, 10 mg/kg
  Brown Adipose Tissue: 0.23 ± 0.01 g
  Inguinal fat: 2.15 ± 0.11 g
  Insulin: 11.9 ± 2.5 ng/mL
  Muscle: 0.140 ± 0.004 g
  Ratio (Triglyceride to HDL): 3.5 ± 0.3
  Ratio (fat/muscle): 25.9 ± 0.8
  Retroperitoneal fat: 1.47 ± 0.04 g
Dose response part, 10 mg/kg oral once daily 10 days
  Glucose: 420 ± 10 mg/dL
[1]
  Cholesterol: 92 ± 3 mg/dL
  HDL: 47.1 ± 1.5 mg/dL
  Triglyceride: 166 ± 13 mg/dL
Dose response part, 30 mg/kg
  Brown Adipose Tissue: 0.22 ± 0.01 g
  Inguinal fat: 1.97 ± 0.07 g
  Insulin: 10.8 ± 2.9 ng/mL
  Muscle: 0.141 ± 0.003 g
  Ratio (Triglyceride to HDL): 4.1 ± 0.3
  Ratio (fat/muscle): 24.5 ± 0.5
  Retroperitoneal fat: 1.49 ± 0.07 g
Dose response part, 30 mg/kg oral once daily 10 days
  Glucose: 439 ± 13 mg/dL
[2]
  Cholesterol: 95 ± 2 mg/dL
  HDL: 49.2 ± 1.7 mg/dL
  Triglyceride: 202 ± 18 mg/dL
Dose response part, 100 mg/kg
  Brown Adipose Tissue: 0.24 ± 0.00 g
  Inguinal fat: 2.05 ± 0.09 g
  Insulin: 3.9 ± 1.4 ng/mL
  Muscle: 0.140 ± 0.007 g
  Ratio (Triglyceride to HDL): 3.3 ± 0.3
  Ratio (fat/muscle): 26.3 ± 1.0
  Retroperitoneal fat: 1.55 ± 0.11 g
  hyperinsulinemia decreased compared to vehicle treated mice: 63.5%
Dose response part, 100 mg/kg oral once daily 10 days
  Glucose: 394 ± 17 mg/dL
Dose response part, 100 mg/kg, control 0.35±0.03 g, p<0.05
  stomach content: 0.51 ± 0.04 g
[3]
  Cholesterol: 102 ± 3 mg/dL
  HDL: 51.7 ± 1.7 mg/dL
  Triglyceride: 169 ± 10 mg/dL
Dose response part, 10, 30 and 100 mg/kg groups
  food intake and body weight: no differences
Single dose part, 300 mg/kg
  Glucose levels reduced compared to vehicle treated mice: 50%
  HDL elevated compared to vehicle: 22.8%
  plasma triglyceride decreased compared to vehicle: 39.4%
  ratio of triglyceride to HDL reduced: 50.2%
  stomach content weights versus vehicle at the end of the experiment: two times greater
[4]
  Brown Adipose Tissue: 0.25 ± 0.01 g
  Final weight Body weight: 39 ± 0.9 g
  Final weight Stomach contents: 0.52 ± 0.07 g
  Inguinal fat: 2.28 ± 0.11 g
  Muscle: 0.154 ± 0.00 g
  Retroperitoneal fat: 1.31 ± 0.07 g
  Total chow consumption Day 1-3: 14 ± 0.9 g
  Total chow consumption Day 4-6: 14.9 ± 1.1 g
  Total chow consumption Day 7-9: 16 ± 0.6 g
[5]
  Glucose: 210 ± 27 mg/dL
  Insulin: 16.0 ± 2.5 ng/mL
[6]
  Cholesterol: 108 ± 3 mg/dL
  HDL: 55.9 ± 1.2 mg/dL
  LDL: 3.4 ± 0.2 mg/dL
  Ratio (Triglyceride to HDL): 1.8 ± 0.3
  Triglyceride: 98 ± 13 mg/dL
Single dose part, Compound #8 300 mg/kg, total inguinal and retroperitoneal fat/muscle weight
  Ratio (fat/muscle): 23.4 ± 0.9
